Marks after values point to notes of the source that are not given here.
Columns and labels:
Format in all cases: in vivo
[1] = test system: Erysiphe graminis f. sp. tritici; test: Test A: wheat powdery mildew, test suspension sprayed on wheat seedlings, disease rating; settings: for pest or weed control at 200 ppm: Blumeria graminis, 192 h
[2] = test system: Puccinia recondite f sp. tritici; test: Test B: wheat leaf rust, test suspension sprayed on wheat seedlings, disease rating;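 also: 200 ppm unless marked * meaning 40 ppm or ** meaning 10 ppm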
Septoria nodorum = test: Test D: wheat glume blotch, test suspension sprayed on wheat seedlings, disease rating; settings: for pest or weed control at 200 ppm: Parastagonospora nodorum, 216 h
Septoria tritici = test: Test E: wheat leaf blotch, test suspension sprayed on wheat seedlings, disease rating; settings: 200 ppm test suspension; for pest or weed control at 200 ppm: Zymoseptoria tritici, 504 h;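 as to all read-outs here: 200 ppm unless marked * meaning 40 ppm or ** meaning 10 ppm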
Pythium aphanidermatum = test: Test L: bluegrass pythium blight, test suspension sprayed on bluegrass seedlings, disease rating; settings: for pest or weed control at 200 ppm: Pythium aphanidermatum, 120 h;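 as to all read-outs here: 200 ppm unless marked * meaning 40 ppm or ** meaning 10 ppm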
Fusarium graminearum = test: whole plant or invertebrate
Phytophthora infestans = test: whole plant or invertebrate; settings: for pest or weed control at 200 ppm: Phytophthora infestans, in Solanum lycopersicum, 120 h, read-out: Test J disease control rating
[3] = 200 ppm test suspension, 100 = 100% disease control, 0 = no control

CC(CO)Nc1nccc(-c2c(-c3ccc(F)cc3)nn3c2Cc2ccccc2C3)n1 (centres unmarked) [compound 140]
Test A disease control rating [1, 3]: 0% | Test B disease control rating ([2]; 200 ppm test suspension): 90% | Test D disease control rating (Septoria nodorum; 200 ppm test suspension): 0% | Test E disease control rating (Septoria tritici): 49% | Test L disease control rating (Pythium aphanidermatum; 200 ppm test suspension): 99% | Test C disease control rating (Fusarium graminearum; 200 ppm test suspension): 98% | Test J disease control rating (Phytophthora infestans; 200 ppm test suspension): 26%

Cc1cc(-c2nn3c(c2-c2ccnc(NC(C)CO)n2)COCC3)ccc1F (centres unmarked) [compound 123]
Test A disease control rating [1, 3]: 0% | Test B disease control rating ([2]; 200 ppm test suspension): 90% | Test D disease control rating (Septoria nodorum; 200 ppm test suspension): 0% | Test E disease control rating (Septoria tritici): 31% | Test L disease control rating (Pythium aphanidermatum; 200 ppm test suspension): 100% | Test C disease control rating (Fusarium graminearum; 200 ppm test suspension): 99% | Test J disease control rating (Phytophthora infestans; 200 ppm test suspension): 91%

CC(CS(=O)(=O)[O-])Nc1nccc(-c2c(-c3ccc(F)cc3)nn3c2CCCC3)n1.[Na+] (centres unmarked) [compound 64]
Test A disease control rating [1, 3]: 0% | Test B disease control rating ([2]; 200 ppm test suspension): 0% | Test D disease control rating (Septoria nodorum; 200 ppm test suspension): 0% | Test E disease control rating (Septoria tritici): 0% | Test L disease control rating (Pythium aphanidermatum; 200 ppm test suspension): 0% | Test C disease control rating (Fusarium graminearum; 200 ppm test suspension): 0% | Test J disease control rating (Phytophthora infestans; 200 ppm test suspension): 0%

C#CCNc1nccc(-c2c(-c3ccc(F)cc3)nn3c2CCCC3)n1 [compound 58]
Test A disease control rating ([1]; 40 ppm test suspension (*)): 0* % | Test B disease control rating ([2]; 40 ppm test suspension (*)): 0* % | Test D disease control rating (Septoria nodorum; 40 ppm test suspension (*)): 82* % | Test L disease control rating (Pythium aphanidermatum; 40 ppm test suspension (*)): 62* % | Test C disease control rating (Fusarium graminearum; 40 ppm test suspension (*)): 100* % | Test J disease control rating (Phytophthora infestans; 40 ppm test suspension (*)): 26* %

Fc1ccc(-c2nn3c(c2-c2ccnc(NC4CC4)n2)CCCC3)c(F)c1 [compound 28]
Test A disease control rating [1, 3]: 94% | Test D disease control rating (Septoria nodorum; 200 ppm test suspension): 92% | Test E disease control rating (Septoria tritici): 96% | Test L disease control rating (Pythium aphanidermatum; 200 ppm test suspension): 98% | Test J disease control rating (Phytophthora infestans; 200 ppm test suspension): 95%

C[C@@H](CO)Nc1nccc(-c2c(-c3ccccc3)nn3c2CCCC3)n1 [Compound 54, (2S)-2-[[4-(4,5,6,7-tetrahydro-2-phenylpyrazolo[1,5-c]pyridine-3-yl)-2-pyrimidinyl]amino]-1-propanol]
Test A disease control rating ([1]; 40 ppm test suspension (*)): 0* % | Test B disease control rating ([2]; 40 ppm test suspension (*)): 98* % | Test D disease control rating (Septoria nodorum; 40 ppm test suspension (*)): 60* % | Test L disease control rating (Pythium aphanidermatum; 40 ppm test suspension (*)): 100* % | Test C disease control rating (Fusarium graminearum; 40 ppm test suspension (*)): 95* % | Test J disease control rating (Phytophthora infestans; 40 ppm test suspension (*)): 99* %

Clc1ccc(-c2nn3c(c2-c2ccnc(NC4CC4)n2)CCCC3)cc1 [compound 22]
Test A disease control rating [1, 3]: 50% | Test D disease control rating (Septoria nodorum; 200 ppm test suspension): 87% | Test E disease control rating (Septoria tritici): 94% | Test L disease control rating (Pythium aphanidermatum; 200 ppm test suspension): 77% | Test J disease control rating (Phytophthora infestans; 200 ppm test suspension): 83%

Fc1ccc(-c2nn3c(c2-c2ccnc(NC4CC4)n2)COCC3)cc1 [Compound 109, N-cyclopropyl-4-[2-(4-fluorophenyl)-6,7-dihydro-4H-pyrazolo[5,1-c][1,4]oxazin-3-yl]-2-pyrimidinamine]
pest or weed control at 200 ppm [1, 3]: 92% | pest or weed control at 200 ppm (Septoria nodorum; 200 ppm test suspension): 0% | pest or weed control at 200 ppm (Septoria tritici): 100% | pest or weed control at 200 ppm (Pythium aphanidermatum; 200 ppm test suspension): 100% | pest or weed control at 200 ppm (Fusarium graminearum; Fusarium graminearum, in Triticum aestivum, 192 h, read-out: Test C disease control rating): 100% | pest or weed control at 200 ppm (Phytophthora infestans): 99%

CC(C)Nc1nccc(-c2c(-c3ccccc3)nn3c2CCCC3)n1 [Compound 26, N-(1-methylethyl)-4-(4,5,6,7-tetrahydro-2-phenylpyrazolo[1,5-a]pyridin-3-yl)-2-pyrimidinamine]
pest or weed control at 200 ppm [1, 3]: 91% | pest or weed control at 200 ppm (Septoria nodorum; 200 ppm test suspension): 99% | pest or weed control at 200 ppm (Septoria tritici): 96% | pest or weed control at 200 ppm (Pythium aphanidermatum; 200 ppm test suspension): 100% | pest or weed control at 200 ppm (Phytophthora infestans): 91%

COCC(C)Nc1nccc(-c2c(-c3ccc(F)c(C)c3)nn3c2CCCC3)n1 (centres unmarked) [compound 62]
Test A disease control rating ([1]; 40 ppm test suspension (*)): 78* % | Test B disease control rating ([2]; 40 ppm test suspension (*)): 80* % | Test D disease control rating (Septoria nodorum; 40 ppm test suspension (*)): 60* % | Test L disease control rating (Pythium aphanidermatum; 40 ppm test suspension (*)): 99* % | Test C disease control rating (Fusarium graminearum; 40 ppm test suspension (*)): 98* % | Test J disease control rating (Phytophthora infestans; 40 ppm test suspension (*)): 96* %

C[Si](C)(C)CNc1nccc(-c2c(-c3ccccc3)nn3c2CCCC3)n1 [compound 55]
Test A disease control rating ([1]; 40 ppm test suspension (*)): 0* % | Test B disease control rating ([2]; 40 ppm test suspension (*)): 91* % | Test D disease control rating (Septoria nodorum; 40 ppm test suspension (*)): 44* % | Test L disease control rating (Pythium aphanidermatum; 40 ppm test suspension (*)): 0* % | Test C disease control rating (Fusarium graminearum; 40 ppm test suspension (*)): 99* % | Test J disease control rating (Phytophthora infestans; 40 ppm test suspension (*)): 17* %

Cc1cc(-c2nn3c(c2-c2ccnc(NC(C)CO)n2)CCCC3)ccc1F (centres unmarked) [compound 32]
Test A disease control rating ([1]; 40 ppm test suspension (*)): 0* % | Test B disease control rating ([2]; 40 ppm test suspension (*)): 74* % | Test D disease control rating (Septoria nodorum; 40 ppm test suspension (*)): 0* % | Test L disease control rating (Pythium aphanidermatum; 40 ppm test suspension (*)): 99* % | Test C disease control rating (Fusarium graminearum; 40 ppm test suspension (*)): 0* % | Test J disease control rating (Phytophthora infestans; 40 ppm test suspension (*)): 98* %

C#CCNc1nccc(-c2c(-c3ccccc3)nn3c2CCCC3)n1 [compound 59]
Test A disease control rating ([1]; 40 ppm test suspension (*)): 0* % | Test B disease control rating ([2]; 40 ppm test suspension (*)): 92* % | Test D disease control rating (Septoria nodorum; 40 ppm test suspension (*)): 94* % | Test L disease control rating (Pythium aphanidermatum; 10 ppm test suspension (**)): 67** % | Test C disease control rating (Fusarium graminearum; 40 ppm test suspension (*)): 99* % | Test J disease control rating (Phytophthora infestans; 40 ppm test suspension (*)): 71* %

Cc1cc(-c2nn3c(c2-c2ccnc(NC(C)C)n2)CCCC3)ccc1F [compound 33]
Test A disease control rating ([1]; 40 ppm test suspension (*)): 0* % | Test B disease control rating ([2]; 40 ppm test suspension (*)): 77* % | Test D disease control rating (Septoria nodorum; 40 ppm test suspension (*)): 94* % | Test L disease control rating (Pythium aphanidermatum; 40 ppm test suspension (*)): 97* % | Test C disease control rating (Fusarium graminearum; 40 ppm test suspension (*)): 98* % | Test J disease control rating (Phytophthora infestans; 40 ppm test suspension (*)): 95* %

CN(C)Nc1nccc(-c2c(-c3ccc(F)cc3)nn3c2CCCC3)n1 [compound 23]
Test A disease control rating [1, 3]: 99% | Test D disease control rating (Septoria nodorum; 200 ppm test suspension): 94% | Test E disease control rating (Septoria tritici): 98% | Test L disease control rating (Pythium aphanidermatum; 200 ppm test suspension): 0% | Test J disease control rating (Phytophthora infestans; 200 ppm test suspension): 71%

Cc1cc(-c2nn3c(c2-c2ccnc(NC[Si](C)(C)C)n2)CCCC3)ccc1F [compound 50]
Test A disease control rating ([1]; 40 ppm test suspension (*)): 0* % | Test B disease control rating ([2]; 40 ppm test suspension (*)): 0* % | Test D disease control rating (Septoria nodorum; 40 ppm test suspension (*)): 0* % | Test L disease control rating (Pythium aphanidermatum; 40 ppm test suspension (*)): 68* % | Test C disease control rating (Fusarium graminearum; 40 ppm test suspension (*)): 92* % | Test J disease control rating (Phytophthora infestans; 40 ppm test suspension (*)): 31* %

Cc1cc(-c2nn3c(c2-c2ccnc(NC4CC4)n2)CCCC3)ccc1F [compound 56]
Test A disease control rating ([1]; 40 ppm test suspension (*)): 86* % | Test B disease control rating ([2]; 40 ppm test suspension (*)): 0* % | Test D disease control rating (Septoria nodorum; 40 ppm test suspension (*)): 99* % | Test L disease control rating (Pythium aphanidermatum; 40 ppm test suspension (*)): 100* % | Test C disease control rating (Fusarium graminearum; 40 ppm test suspension (*)): 100* % | Test J disease control rating (Phytophthora infestans; 40 ppm test suspension (*)): 93* %

CC(C)N(O)c1nccc(-c2c(-c3ccc(F)cc3)nn3c2CS(=O)(=O)CC3)n1 [compound 115]
Test A disease control rating ([1]; 40 ppm test suspension (*)): 0* % | Test B disease control rating ([2]; 40 ppm test suspension (*)): 63* % | Test D disease control rating (Septoria nodorum; 40 ppm test suspension (*)): 69* % | Test C disease control rating (Fusarium graminearum; 40 ppm test suspension (*)): 0* % | Test J disease control rating (Phytophthora infestans; 40 ppm test suspension (*)): 73* %

C[C@H](CO)Nc1nccc(-c2c(-c3ccc(F)cc3)nn3c2CCCC3)n1 [compound 57]
Test A disease control rating ([1]; 40 ppm test suspension (*)): 0* % | Test B disease control rating ([2]; 40 ppm test suspension (*)): 86* % | Test D disease control rating (Septoria nodorum; 40 ppm test suspension (*)): 0* % | Test L disease control rating (Pythium aphanidermatum; 40 ppm test suspension (*)): 100* % | Test C disease control rating (Fusarium graminearum; 40 ppm test suspension (*)): 0* % | Test J disease control rating (Phytophthora infestans; 40 ppm test suspension (*)): 99* %

COCC(C)Nc1nccc(-c2c(-c3ccccc3)nn3c2CCCC3)n1 (centres unmarked) [compound 53]
Test A disease control rating ([1]; 40 ppm test suspension (*)): 0* % | Test B disease control rating ([2]; 40 ppm test suspension (*)): 98* % | Test D disease control rating (Septoria nodorum; 40 ppm test suspension (*)): 84* % | Test L disease control rating (Pythium aphanidermatum; 40 ppm test suspension (*)): 100* % | Test C disease control rating (Fusarium graminearum; 40 ppm test suspension (*)): 99* % | Test J disease control rating (Phytophthora infestans; 40 ppm test suspension (*)): 99* %

CC(C)Nc1nccc(-c2c(-c3ccc(Cl)cc3)nn3c2CCCC3)n1 [compound 21]
Test A disease control rating [1, 3]: 96% | Test D disease control rating (Septoria nodorum; 200 ppm test suspension): 82% | Test E disease control rating (Septoria tritici): 100% | Test L disease control rating (Pythium aphanidermatum; 200 ppm test suspension): 76% | Test J disease control rating (Phytophthora infestans; 200 ppm test suspension): 52%

OCCNc1nccc(-c2c(-c3ccc(F)cc3)nn3c2CCCC3)n1 [compound 25]
Test A disease control rating [1, 3]: 96% | Test D disease control rating (Septoria nodorum; 200 ppm test suspension): 87% | Test E disease control rating (Septoria tritici): 97% | Test L disease control rating (Pythium aphanidermatum; 200 ppm test suspension): 100% | Test J disease control rating (Phytophthora infestans; 200 ppm test suspension): 83%
